Legend:
[1] = target: ternary complex between BCL-XL and CRBN-DDB1 (Homo sapiens, UniProt Q07817+Q96SW2); assay: Compound-induced formation of ternary complex between BCL-XL and CRBN-DDB1 by AlphaLISA; assay type: biochemical; set-up: key: the number of + indicates the intensity of AlphaLISA peak signal; ++: the number of + indicates the intensity of AlphaLISA peak signal; +++: the number of + indicates the intensity of AlphaLISA peak signal; ++++: the number of + indicates the intensity of AlphaLISA peak signal; +++++: the number of + indicates the intensity of AlphaLISA peak signal; conditions: peak signal; 60 nM Strep-BCL-XL and 60 nM His-CRBN/DDB1
Chain of ternary complex between BCL-XL and CRBN-DDB1 (Q07817 whole entry): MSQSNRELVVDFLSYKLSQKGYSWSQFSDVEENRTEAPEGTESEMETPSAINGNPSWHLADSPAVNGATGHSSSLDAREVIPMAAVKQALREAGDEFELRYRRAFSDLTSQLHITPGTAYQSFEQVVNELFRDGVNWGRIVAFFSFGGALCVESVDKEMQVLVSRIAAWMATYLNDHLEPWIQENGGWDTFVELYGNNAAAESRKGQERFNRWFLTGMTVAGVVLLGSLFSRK
Chain of ternary complex between BCL-XL and CRBN-DDB1 (Q96SW2 whole entry): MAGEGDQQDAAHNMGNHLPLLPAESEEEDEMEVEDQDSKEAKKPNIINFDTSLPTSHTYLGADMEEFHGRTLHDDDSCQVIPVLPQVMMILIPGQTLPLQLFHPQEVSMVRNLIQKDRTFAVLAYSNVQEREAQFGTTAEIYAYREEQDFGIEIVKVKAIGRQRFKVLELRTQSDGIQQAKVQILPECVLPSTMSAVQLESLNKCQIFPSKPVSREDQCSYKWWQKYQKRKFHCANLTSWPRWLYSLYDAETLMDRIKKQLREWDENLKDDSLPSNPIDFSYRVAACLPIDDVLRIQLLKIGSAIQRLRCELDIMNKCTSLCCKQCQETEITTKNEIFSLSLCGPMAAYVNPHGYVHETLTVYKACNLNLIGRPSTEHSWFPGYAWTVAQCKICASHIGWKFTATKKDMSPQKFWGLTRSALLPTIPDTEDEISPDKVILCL
Chain of ternary complex between BCL-XL and CRBN-DDB1 (Q16531 whole entry partner): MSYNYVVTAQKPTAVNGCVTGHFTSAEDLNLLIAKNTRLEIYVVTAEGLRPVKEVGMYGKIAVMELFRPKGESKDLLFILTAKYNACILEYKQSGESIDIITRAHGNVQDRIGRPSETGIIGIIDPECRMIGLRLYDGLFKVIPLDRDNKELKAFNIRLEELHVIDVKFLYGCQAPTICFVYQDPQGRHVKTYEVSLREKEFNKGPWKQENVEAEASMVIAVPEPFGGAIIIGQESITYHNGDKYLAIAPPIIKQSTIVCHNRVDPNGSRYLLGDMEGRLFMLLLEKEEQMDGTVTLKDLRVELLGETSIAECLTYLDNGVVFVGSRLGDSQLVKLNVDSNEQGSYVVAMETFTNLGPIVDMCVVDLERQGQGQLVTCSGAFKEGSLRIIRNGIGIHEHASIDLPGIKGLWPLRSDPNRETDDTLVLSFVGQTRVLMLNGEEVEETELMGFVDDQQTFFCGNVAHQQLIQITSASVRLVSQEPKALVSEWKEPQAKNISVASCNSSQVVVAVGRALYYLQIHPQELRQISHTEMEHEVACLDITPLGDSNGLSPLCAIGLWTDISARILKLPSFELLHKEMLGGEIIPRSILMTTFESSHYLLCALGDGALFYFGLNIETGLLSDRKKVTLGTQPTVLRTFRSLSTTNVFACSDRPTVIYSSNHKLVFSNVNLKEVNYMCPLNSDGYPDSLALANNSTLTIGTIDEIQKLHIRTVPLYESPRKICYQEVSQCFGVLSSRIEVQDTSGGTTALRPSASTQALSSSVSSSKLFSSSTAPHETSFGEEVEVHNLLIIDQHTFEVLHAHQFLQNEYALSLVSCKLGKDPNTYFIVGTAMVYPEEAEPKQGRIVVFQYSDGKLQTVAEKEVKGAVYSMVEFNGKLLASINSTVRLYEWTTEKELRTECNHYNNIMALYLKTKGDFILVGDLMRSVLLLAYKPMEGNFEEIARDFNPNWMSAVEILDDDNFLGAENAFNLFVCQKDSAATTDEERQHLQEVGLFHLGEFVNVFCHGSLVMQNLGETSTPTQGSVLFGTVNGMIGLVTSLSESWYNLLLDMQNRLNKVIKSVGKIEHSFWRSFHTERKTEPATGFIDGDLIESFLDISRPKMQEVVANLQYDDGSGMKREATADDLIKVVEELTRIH
Protocol: Experimental Example 4, Detection of Compound-Induced Formation of Ternary Complex Between BCL-XL and CRBN-DDB1 by AlphaLISA Method
Na2HPO4(Sigma), NaH2PO4(Sigma), sodium chloride (Sigma), Tween-20 (Sigma), AlphaLISA®Nikel Chelate Acceptor beads (PerkinElmer), Strep-Tactin® Alpha Donor beads (PerkinElmer), Assay plate (Corning), Strep-BCl-XL (HitGen), His-CRBN/DDB1 (HitGen).
DMSO was used to dissolve the dry powder of the test compound to obtain a 10.00 mM solution. The instrument ECHO was used to perform gradient dilution of the compound, which was then added to a 384-well reaction plate (Corning, Cat #3824), so that the final concentration of DMSO in the entire reaction system (10.0 μL) was less than 1%, and the same amount of DMSO was added and used as a control.
Strep-BCl-XL and His-CRBN/DDB1 proteins were dissolved in buffer (10 mM NaH2PO4, 40 mM Na2HPO4, 150 mM sodium chloride, 0.03% Tween20, pH=7.4) to obtain a protein mixture of 60 nM Strep-BCL-XL and 60 nM His-CRBN/DDB1, the protein mixture (5ul/well) was added to the 384-well plate in which the compound had been added, and incubated at room temperature for 30 minutes, then 5 μl of a detection mixture with 50 μg/ml AlphaLISA®Nikel Chelate Acceptor beads and 50 μg/ml Strep-Tactin® Alpha Donor beads was added, and incubated at room temperature for 2 hours; and then a microplate reader was used to detect AlphaLISA signal.
Fifth order polynomial or Sixth order polynomial in Polynomial of Graphpad 6.0 was used for data fitting.

[2] = system: MOLT-4 cells; assay: Inhibitory activity on MOLT4 cell proliferation by Cell Titer-Glo method; assay type: cell-based; conditions: Homo sapiens, 72 hours incubation, read-out: IC50 concentration for inhibiting MOLT-4 cells
Protocol: Experimental Example 5, Evaluation Experiment of Inhibitory Activity of Compound on MOLT4 Cell Proliferation by Cell Titer-Glo Method
RPMI medium modified (Hyclone), FBS (Corning), Dimethyl Sulfoxide, P/S, CellTiter-Gbo Luminescent Cell Viability Assay (Promega), MOLT-4 cell (ATCC).
MOLT-4 cells were cultured in monolayer in vitro in an incubator containing 5% CO2 air at 37° C. The culture medium was RPMI 1640 with 10% FBS and 1% P/S. 15 μL of MOLT4 cells, containing 5×10^4 cells per ml, was inoculated to a 384-well plate (Corning, 3707), 750 cells/well, and incubated at 37° C. and 5% CO2 for 30 minutes. Then the compound that had been diluted in advance was added, with a total of 9 concentration points, and 2 parallel repetitions for each concentration point. The cell growing group without adding the compound was used as a negative control (maximum signal control), and the culture medium group was used as a blank control (minimum signal control). At the same time, it was ensured that the final DMSO content in each reaction well was 0.1%. The compound and the cells were incubated in a cell culture incubator at 37° C., 5% CO2 for 3 days (72 hours).
The 384-well plate was taken out from the cell culture incubator and allowed to stand at room temperature, equilibrated for 20 to 30 minutes, and then 25 μl of Cell Titer-Glo detection reagent was added to each reaction well, lysed on a shaker for 2 minutes, incubated for 10 minutes, and BMG PHERAStar (Luminescence) was used for reading.
The inhibition rate was calculated based on the luminescence signals: the average value of the negative control (maximum signal control) and the blank control (minimum signal control) was first calculated, then the inhibition rates of the compound at different concentrations for the cells were calculated as follows:
The IC50 of the compound to inhibit cell activity was calculated by fitting with GraphPad Prism 6 using log(inhibitor) vs. response−Variable slope mode. The fitting equation was: Y=Bottom+(Top−Bottom)/(1+10^((LogIC50−X)*HillSlope)), wherein Y represented the inhibition rate and X represented the known compound concentration after Log.

SMILES: CNc1nc(-c2cnc3ccccc3c2)nc2c1CCN(C(=O)c1ccc(COc3ccc(C#CCN4CCN(C(=O)CCCn5cc(COCCOCCNc6cccc7c6C(=O)N(C6CCC(=O)NC6=O)C7=O)nn5)CC4)cc3)cc1)C2 (stereo not drawn) [A]
- AlphaLISA signal (PROTAC ternary complex signal intensity) [1]: ++
- IC50 [2]: 50 to 100 µM

SMILES: C=Cc1cc(-c2nc3c(c(NC)n2)CCN(C(=O)c2ccc(COc4ccc(C#CCN5CCN(CCCCNc6cccc7c6C(=O)N(C6CCC(=O)NC6=O)C7=O)CC5)cc4)cc2)C3)cnc1C=C (stereo not drawn) [Compound C2-2]
- AlphaLISA signal (PROTAC ternary complex signal intensity) [1]: ++++
- IC50 [2]: 50 to 100 µM

SMILES: C=Cc1cc(-c2nc3c(c(NC)n2)CCN(C(=O)c2ccc(COc4ccc(C#CCN5CCN(CCCCCNc6cccc7c6C(=O)N(C6CCC(=O)NC6=O)C7=O)CC5)cc4)cc2)C3)cnc1C=C (stereo not drawn) [Compound C2-3]
- AlphaLISA signal (PROTAC ternary complex signal intensity) [1]: +++++
- IC50 [2]: 100 to 200 µM

SMILES: C=Cc1cc(-c2ncc3c(n2)CN(C(=O)c2ccc(/C=C/c4ccc(C#CCN5CCN(CCCCCOc6cccc7c6C(=O)N(C6CCC(=O)NC6=O)C7=O)CC5)cc4)cc2)CC3)cnc1C=C (stereo not drawn) [Compound C3-2]
- AlphaLISA signal (PROTAC ternary complex signal intensity) [1]: +
- IC50 [2]: 100 to 200 µM

SMILES: C/C=c1/cc(-c2ncc3c(n2)CN(C(=O)c2ccc(/C=C/c4ccc(C#CCN5CCN(CCCCCOc6cccc7c6CN(C6CCC(=O)NC6=O)C7=O)CC5)cc4)cc2)CC3)cn/c1=C/C (stereo not drawn) [Compound C3-4]
- AlphaLISA signal (PROTAC ternary complex signal intensity) [1]: +
- IC50 [2]: 100 to 200 µM

SMILES: C/C=c1/cc(-c2nc3c(c(NC)n2)CCN(C(=O)c2ccc(/C=C/c4ccc(C#CCN5CCN(CCCCCOc6cccc7c6CN(C6CCC(=O)NC6=O)C7=O)CC5)cc4)cc2)C3)cn/c1=C/C (stereo not drawn) [Compound C3-5]
- AlphaLISA signal (PROTAC ternary complex signal intensity) [1]: ++
- IC50 [2]: 100 to 200 µM

SMILES: C=Cc1cc(-c2nc3c(c(NC)n2)CCN(C(=O)c2ccc(/C=C/c4ccc(C#CCN5CCN(CCCCCOc6cccc7c6C(=O)N(C6CCC(=O)NC6=O)C7=O)CC5)cc4)cc2)C3)cnc1C=C (stereo not drawn) [Compound C3-6]
- AlphaLISA signal (PROTAC ternary complex signal intensity) [1]: +
- IC50 [2]: 50 to 100 µM

SMILES: C=Cc1cc(-c2nc3c(c(NC)n2)CCN(C(=O)c2ccc(COc4ccc(C#CCN5CCN(CCCOc6cccc7c6C(=O)N(C6CCC(=O)NC6=O)C7=O)CC5)cc4)cc2)C3)cnc1C=C (stereo not drawn) [Compound C3-14]
- AlphaLISA signal (PROTAC ternary complex signal intensity) [1]: +

SMILES: C=Cc1cc(-c2nc3c(c(NC)n2)CCN(C(=O)c2ccc(COc4ccc(C#CCN5CCN(CCCCOc6cccc7c6C(=O)N(C6CCC(=O)NC6=O)C7=O)CC5)cc4)cc2)C3)cnc1C=C (stereo not drawn) [Compound C3-15]
- AlphaLISA signal (PROTAC ternary complex signal intensity) [1]: +

SMILES: C=Cc1cc(-c2nc3c(c(NC)n2)CCN(C(=O)c2ccc(COc4ccc(C#CCN5CCN(CCCCCOc6cccc7c6C(=O)N(C6CCC(=O)NC6=O)C7=O)CC5)cc4)cc2)C3)cnc1C=C (stereo not drawn) [Compound C3-16]
- AlphaLISA signal (PROTAC ternary complex signal intensity) [1]: ++++
- IC50 [2]: 50 to 100 µM

SMILES: C=Cc1cc(-c2nc3c(c(NC)n2)CCN(C(=O)c2ccc(COc4ccc(C#CCN5CCN(CCCCCCOc6cccc7c6C(=O)N(C6CCC(=O)NC6=O)C7=O)CC5)cc4)cc2)C3)cnc1C=C (stereo not drawn) [Compound C3-17]
- AlphaLISA signal (PROTAC ternary complex signal intensity) [1]: ++++
- IC50 [2]: 50 to 100 µM

SMILES: C=Cc1cc(-c2nc3c(c(NC)n2)CCN(C(=O)c2ccc(COc4ccc(C#CCN5CCN(CCCCCCCCOc6cccc7c6C(=O)N(C6CCC(=O)NC6=O)C7=O)CC5)cc4)cc2)C3)cnc1C=C (stereo not drawn) [Compound C3-18]
- AlphaLISA signal (PROTAC ternary complex signal intensity) [1]: +++

SMILES: O=C1CCC(N2Cc3c(C#CCCCN4CCN(CC#Cc5ccc(/C=C/c6ccc(C(=O)N7CCc8cnc(-c9cnc%10ccccc%10c9)nc8C7)cc6)cc5)CC4)cccc3C2=O)C(=O)N1 (stereo not drawn) [Compound D2-4]
- AlphaLISA signal (PROTAC ternary complex signal intensity) [1]: +
- IC50 [2]: 100 to 200 µM

SMILES: CNc1nc(-c2cnc3ccccc3c2)nc2c1CCN(C(=O)c1ccc(/C=C/c3ccc(C#CCN4CCN(CCCC#Cc5cccc6c5CN(C5CCC(=O)NC5=O)C6=O)CC4)cc3)cc1)C2 (stereo not drawn) [Compound D2-6]
- AlphaLISA signal (PROTAC ternary complex signal intensity) [1]: ++
- IC50 [2]: 100 to 200 µM

SMILES: C=Cc1cc(-c2ncc3c(n2)CN(C(=O)c2ccc(/C=C/c4ccc(C#CCN5CCN(C6CCN(CC#Cc7cccc8c7CN(C7CCC(=O)NC7=O)C8=O)CC6)CC5)cc4)cc2)CC3)cnc1C=C (stereo not drawn) [Compound E1-2]
- AlphaLISA signal (PROTAC ternary complex signal intensity) [1]: ++
- IC50 [2]: 50 to 100 µM

SMILES: O=C1CCC(N2Cc3c(OC4CC5(C4)CN(C4CCN(CC#Cc6ccc(/C=C/c7ccc(C(=O)N8CCc9cnc(-c%10cnc%11ccccc%11c%10)nc9C8)cc7)cc6)CC4)C5)cccc3C2=O)C(=O)N1 (stereo not drawn) [Compound F3B-2]
- AlphaLISA signal (PROTAC ternary complex signal intensity) [1]: ++
- IC50 [2]: 50 to 100 µM

SMILES: CNc1nc(-c2cnc3ccccc3c2)nc2c1CCN(C(=O)c1ccc(/C=C/c3ccc(C#CCN4CCN(CCCCC(=O)N[C@H](C(=O)N5C[C@H](O)C[C@H]5C(=O)NCc5ccc(-c6scnc6C)cc5)C(C)(C)C)CC4)cc3)cc1)C2 [Compound G1-4]
- AlphaLISA signal (PROTAC ternary complex signal intensity) [1]: +

SMILES: CNc1nc(-c2cnc3ccccc3c2)nc2c1CCN(C(=O)c1ccc(/C=C/c3ccc(C#CCN4CCN(CCCCCC(=O)N[C@H](C(=O)N5C[C@H](O)C[C@H]5C(=O)NCc5ccc(-c6scnc6C)cc5)C(C)(C)C)CC4)cc3)cc1)C2 [Compound G1-5]
- AlphaLISA signal (PROTAC ternary complex signal intensity) [1]: ++
- IC50 [2]: > 200 µM

SMILES: CNc1nc(-c2cnc3ccccc3c2)nc2c1CCN(C(=O)c1ccc(/C=C/c3ccc(C#CCN4CCN(C(=O)CCC(=O)N[C@H](C(=O)N5C[C@H](O)C[C@H]5C(=O)N[C@@H](C)c5ccc(-c6scnc6C)cc5)C(C)(C)C)CC4)cc3)cc1)C2 [Compound G2-2]
- AlphaLISA signal (PROTAC ternary complex signal intensity) [1]: +

SMILES: CNc1nc(-c2cnc3ccccc3c2)nc2c1CCN(C(=O)c1ccc(/C=C/c3ccc(C#CCN4CCN(C(=O)CCCC(=O)N[C@H](C(=O)N5C[C@H](O)C[C@H]5C(=O)NCc5ccc(-c6scnc6C)cc5)C(C)(C)C)CC4)cc3)cc1)C2 [Compound G2-3]
- AlphaLISA signal (PROTAC ternary complex signal intensity) [1]: +

SMILES: CNc1nc(-c2cnc3ccccc3c2)nc2c1CCN(C(=O)c1ccc(/C=C/c3ccc(C#CCN4CCN(C(=O)CCCCC(=O)N[C@H](C(=O)N5C[C@H](O)C[C@H]5C(=O)NCc5ccc(-c6scnc6C)cc5)C(C)(C)C)CC4)cc3)cc1)C2 [Compound G2-4]
- AlphaLISA signal (PROTAC ternary complex signal intensity) [1]: +

SMILES: CNc1nc(-c2cnc3ccccc3c2)nc2c1CCN(C(=O)c1ccc(/C=C/c3ccc(C#CCN4CCN(C(=O)CCCCCC(=O)N[C@H](C(=O)N5C[C@H](O)C[C@H]5C(=O)NCc5ccc(-c6scnc6C)cc5)C(C)(C)C)CC4)cc3)cc1)C2 [Compound G2-5]
- AlphaLISA signal (PROTAC ternary complex signal intensity) [1]: +

SMILES: CNc1nc(-c2cnc3ccccc3c2)nc2c1CCN(C(=O)c1ccc(/C=C/c3ccc(C#CCN4CCN(C(=O)CCCCCCC(=O)N[C@H](C(=O)N5C[C@H](O)C[C@H]5C(=O)NCc5ccc(-c6scnc6C)cc5)C(C)(C)C)CC4)cc3)cc1)C2 [Compound G2-6]
- AlphaLISA signal (PROTAC ternary complex signal intensity) [1]: +

SMILES: CNc1nc(-c2cnc3ccccc3c2)nc2c1CCN(C(=O)c1ccc(/C=C/c3ccc(C#CCN4CCN(C(=O)CCCCCCCCC(=O)N[C@H](C(=O)N5C[C@H](O)C[C@H]5C(=O)N[C@@H](C)c5ccc(-c6scnc6C)cc5)C(C)(C)C)CC4)cc3)cc1)C2 [Compound G2-7]
- AlphaLISA signal (PROTAC ternary complex signal intensity) [1]: +

SMILES: CNc1nc(-c2cnc3ccccc3c2)nc2c1CCN(C(=O)c1ccc(/C=C/c3ccc(C#CCN4CCN(CCCCC(=O)N[C@H](C(=O)N5C[C@H](O)C[C@H]5C(=O)N[C@@H](C)c5ccc(-c6scnc6C)cc5)C(C)(C)C)CC4)cc3)cc1)C2 [Compound G3-1]
- AlphaLISA signal (PROTAC ternary complex signal intensity) [1]: +
